Assay results as given in patent US20110183929A1, “STANDARDIZED EXTRACT AND FRACTION FROM HANCORNIA SPECIOSA LEAVES AND PHARMACEUTICAL COMPOSITION THEREOF” (priority 2008, published 2011).

Columns and labels:
normotensive mice = assay: systolic pressure in normotensive mice (caudal vessel); format: in vivo; conditions: 1 mg/kg delivered orally
[1] = target: T1, angiotensin converting enzyme (ACE) (Oryctolagus cuniculus, UniProt P12822); assay: colorimetric ACE inhibition assay (Serra et al.); format: biochemical; conditions: read-out: ACE inhibiting activity IC50
T1 sequence (P12822 34-1310): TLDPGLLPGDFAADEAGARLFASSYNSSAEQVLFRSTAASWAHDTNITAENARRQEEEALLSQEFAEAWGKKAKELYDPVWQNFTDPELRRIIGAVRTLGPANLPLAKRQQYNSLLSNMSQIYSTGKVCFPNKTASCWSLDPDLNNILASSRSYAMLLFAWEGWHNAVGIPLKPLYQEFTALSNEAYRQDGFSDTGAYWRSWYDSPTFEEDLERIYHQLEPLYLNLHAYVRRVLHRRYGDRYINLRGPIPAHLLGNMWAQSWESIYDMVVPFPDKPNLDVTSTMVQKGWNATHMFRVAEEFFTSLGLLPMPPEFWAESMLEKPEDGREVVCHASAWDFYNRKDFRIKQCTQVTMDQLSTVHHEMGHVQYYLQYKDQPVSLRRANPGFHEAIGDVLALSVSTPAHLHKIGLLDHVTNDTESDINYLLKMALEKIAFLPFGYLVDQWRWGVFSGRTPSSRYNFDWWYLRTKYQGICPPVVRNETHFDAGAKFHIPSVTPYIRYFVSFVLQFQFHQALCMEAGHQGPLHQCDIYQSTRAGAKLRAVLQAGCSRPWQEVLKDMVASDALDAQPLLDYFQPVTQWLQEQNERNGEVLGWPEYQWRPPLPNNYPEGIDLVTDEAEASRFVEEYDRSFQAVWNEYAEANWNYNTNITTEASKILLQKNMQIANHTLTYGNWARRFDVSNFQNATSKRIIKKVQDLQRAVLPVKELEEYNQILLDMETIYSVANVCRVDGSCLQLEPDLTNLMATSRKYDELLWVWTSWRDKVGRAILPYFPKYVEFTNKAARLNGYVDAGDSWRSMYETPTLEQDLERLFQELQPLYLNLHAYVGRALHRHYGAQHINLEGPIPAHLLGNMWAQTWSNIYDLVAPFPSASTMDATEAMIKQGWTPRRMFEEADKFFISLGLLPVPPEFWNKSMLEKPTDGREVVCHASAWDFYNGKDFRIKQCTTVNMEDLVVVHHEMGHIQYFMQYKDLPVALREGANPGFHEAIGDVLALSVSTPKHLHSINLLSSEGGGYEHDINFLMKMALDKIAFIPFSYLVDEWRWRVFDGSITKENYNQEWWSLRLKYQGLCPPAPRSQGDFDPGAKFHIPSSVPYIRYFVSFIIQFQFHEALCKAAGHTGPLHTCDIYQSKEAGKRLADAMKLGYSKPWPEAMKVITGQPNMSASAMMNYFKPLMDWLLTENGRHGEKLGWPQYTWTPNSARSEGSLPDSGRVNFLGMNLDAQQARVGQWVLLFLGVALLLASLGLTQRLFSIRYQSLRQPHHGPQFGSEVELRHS
Excerpt: Despite being exhaustively referred to in ethnobotanic surveys, only few biological activities of Hancornia speciosa have been assessed. ACE inhibiting activity for ethanolic extract from the leaves of the said species has been referred to by Serra et al. (Serra, C. P.; Cortes, S. F.; Lombardi, J. A.; Braga De Oliveira, A.; Braga, F. C. Validation of a […] assay for the in vitro screening of inhibitors of angiotensin-converting enzyme (ACE) from plant extracts. Phytomedicine, v. 12, n. 6-7, 2005). These authors assessed several species of the Brazilian flora as for their ACE inhibiting potential. […] P.; Cortes, S. F.; Lombardi, J. A.; Braga De Oliveira, A.; Braga, F. C. Validation of a colorimetric assay for the in vitro screening of inhibitors of angiotensin-converting enzyme (ACE) from plant extracts. Phytomedicine, v. 12, n. 6-7, 2005), in the concentration of 0.1 mg/ml.

Compound | systolic arterial pressure / hypotensive effect (normotensive mice) | IC50 [1] [µM]
C[C@H](CS)C(=O)N1CCC[C@H]1C(=O)O [Captopril] | significant hypotensive effect, but of low intensity and short duration | –
COC1[C@H](O)[C@H](O)C(O)[C@H](O)[C@H]1O (stereo partly drawn) [L-(+)-bornesitol] | – | 41.4 ± 9.6
C[C@@H]1O[C@@H](OC[C@H]2O[C@@H](Oc3c(-c4ccc(O)c(O)c4)oc4cc(O)cc(O)c4c3=O)[C@H](O)[C@@H](O)[C@@H]2O)[C@H](O)[C@H](O)[C@H]1O [rutin] | – | 454 ± 78.4
